≈ marks a conversion by molar mass, not a printed value. Read-outs that look alike come from different tables or passages of the source. Blank lines part the entries; values can stand above or below the compound they belong to.
How the values were obtained:
[1] = tested on: E. coli ATCC 25922; parameters: method as in ref 30 (1), 31 (2, 4), 19 (3); settings: Table 2; ref 30 (1), 31 (2, 4), 19 (3); cited from earlier work
[2] = tested on: S. aureus ATCC 29213; parameters: method as in ref 30 (1), 31 (2, 4), 19 (3); settings: Table 2; ref 30 (1), 31 (2, 4), 19 (3); cited from earlier work
[3] = tested on: S. aureus NCTC 10442; parameters: method as in ref 31 (2, 4), 19 (3); settings: Table 2; MRSA; ref 31 (2, 4), 19 (3); cited from earlier work
[4] = tested on: E. faecalis ATCC 29212; parameters: method as in ref 30 (1), 31 (2, 4), 19 (3); settings: Table 2; ref 30 (1), 31 (2, 4), 19 (3); cited from earlier work
[5] = tested on: C. difficile; parameters: method as in PMID 30901686; settings: murine CDI model, cited from earlier work; for survival rate at 24 h: 10% DMSO group 0%
[6] = tested on: C. difficile 132 (RT027); parameters: method as in PMID 30831407; settings: Table 2; cited from earlier work
[7] = parameters: method as in PMID 30901686; settings: cited from earlier work; for appearance in the solubility assay: Figure 1
[8] = tested on: S. pneumoniae ATCC 49619; parameters: method as in ref 30 (1), 31 (2, 4), 19 (3); settings: Table 2; ref 30 (1), 31 (2, 4), 19 (3); cited from earlier work
[9] = tested on: HEK293 cells; parameters: method as in PMID 30831407; settings: Table 2; cited from earlier work
[10] = tested on: C. difficile; settings: Figure 1; cited from earlier work
[11] = tested on: sheep erythrocytes; settings: cited from earlier work; for % hemolysis at 50 µg/mL: Table 2 HC50 column, footnote i, sheep erythrocytes; for in vitro hemolytic activity: in words
[12] = tested on: S. aureus ATCC 43300; parameters: method as in PMID 30831407; settings: Table 2; MRSA; cited from earlier work
[13] = tested on: C. difficile strain R20291; parameters: method as in ref 30 (compound 1), 19 (compound 3); settings: Table 2 footnote h; ref 30 (compound 1), 19 (compound 3); cited from earlier work
[14] = tested on: C. difficile strain M7404 (RT027); parameters: method as in ref 30 (compound 1), 19 (compound 3); settings: Table 2 footnote g; ref 30 (compound 1), 19 (compound 3); cited from earlier work
[15] = Cytotoxicity (CC50) assay by CO-ADD; assay type: cell-based, human; settings: human, HEK293 cells (ATCC CRL-1573); Table S1; HEK293 cells
[16] = tested on: HEK293 cells; assay: Cytotoxicity (CC50) assay by CO-ADD; assay type: cell-based, human; settings: Table 1; cytotoxicity on HEK293 cells, tested at ≤32 µg/mL
[17] = tested on: K. pneumoniae ATCC 700603; assay: CO-ADD MIC assay, K. pneumoniae ATCC 700603; assay type: cell-based; settings: Klebsiella pneumoniae, ATCC700603, Table S1, multi-drug resistant
Summary of the method: (§1)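 Secondary screening was run by CO-ADD as whole-cell growth inhibition assays, with MIC as the read-out. Vancomycin, colistin, fluconazole and tamoxifen served as positive controls.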

[18] = tested on: E. faecalis ATCC 29212; assay: Primary MIC assay, E. faecalis ATCC 29212; assay type: cell-based, Enterococcus faecalis; settings: Table 1
Summary of the method: (§2)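 Tested per Clinical and Laboratory Standards Institute guidance. Controls included vancomycin, colistin, fluconazole and tamoxifen; vancomycin QC ranges were verified.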

[19] = tested on: S. aureus NCTC 10442; assay: Primary MIC assay, S. aureus NCTC 10442 (MRSA); assay type: cell-based; settings: Staphylococcus aureus; Table 1; MRSA; read-out: MIC S. aureus NCTC 10442
Summary of the method: as §2

[20] = tested on: human erythrocytes; assay: Hemolysis assay, HC50 determination; assay type: cell-based
Method: Hemolysis assay (human erythrocytes)–HC50 determination. These were performed as described previously.

[21] = tested on: E. coli ATCC 25922; assay: Primary MIC assay, E. coli ATCC 25922; assay type: cell-based; settings: Escherichia coli, ATCC25922; Table 1; read-out: MIC E. coli ATCC 25922
[22] = tested on: C. albicans ATCC 90028; assay: CO-ADD MIC assay, C. albicans ATCC 90028; assay type: cell-based
Summary of the method: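 Whole-cell growth inhibition (MIC) screening run by CO-ADD. Fluconazole served as antifungal positive control.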

[23] = tested on: A. baumannii ATCC 19606; assay: CO-ADD MIC assay, A. baumannii ATCC 19606; assay type: cell-based; settings: Acinetobacter baumannii, ATCC19606, Table S1
Summary of the method: as §1

[24] = tested on: S. pneumoniae ATCC 49619; assay: Primary MIC assay, S. pneumoniae ATCC 49619; assay type: cell-based, Streptococcus pneumoniae; settings: Table 1
Summary of the method: as §2

[25] = tested on: S. aureus ATCC 43300; assay: CO-ADD MIC assay, S. aureus ATCC 43300 (MRSA); assay type: cell-based; settings: Table S1, MRSA, CO-ADD
Summary of the method: as §1

[26] = tested on: S. aureus ATCC 29213; assay: Primary MIC assay, S. aureus ATCC 29213; assay type: cell-based; settings: Staphylococcus aureus, ATCC29213; Table 1; read-out: MIC S. aureus ATCC 29213
Summary of the method: as §2

[27] = tested on: E. coli ATCC 25922; assay: CO-ADD MIC assay, E. coli ATCC 25922; assay type: cell-based
Summary of the method: as §1

[28] = tested on: C. difficile ATCC 700057; assay: Primary MIC assay, C. difficile ATCC 700057; assay type: cell-based, Clostridioides difficile; settings: Clostridioides difficile, ATCC700057; Table 1; read-out: MIC C. difficile ATCC 700057
Summary of the method: as §2

[29] = tested on: P. aeruginosa ATCC 27853; assay: CO-ADD MIC assay, P. aeruginosa ATCC 27853; assay type: cell-based; settings: Pseudomonas aeruginosa, ATCC27853, Table S1
Summary of the method: as §1

[30] = tested on: C. difficile 132 (RT027); assay: Primary MIC assay, C. difficile 132 (RT027); assay type: cell-based, Clostridioides difficile; settings: Clostridioides difficile; Table 1; read-out: MIC C. difficile 132 (RT027)
Summary of the method: as §2

Compound: CC(C)CCOc1ccc2ccccc2c1-c1c(OCc2cn(C[C@@H](CCCCN)NC(=O)[C@@H](CCCNC(=N)N)NC(=O)CCc3ccccc3)nn2)ccc2ccccc12 [Compound 2]
MIC E. coli ATCC 25922 [1]: 8 mg/L (≈ 9.52 µM)
MIC S. aureus ATCC 29213 [2]: 4 mg/L (≈ 4.76 µM)
MIC S. aureus NCTC 104422 [3]: 4 mg/L (≈ 4.76 µM)
MIC E. faecalis ATCC 29212 [4]: 4 mg/L (≈ 4.76 µM)
survival rate at 24 h [5]: 50%
MIC C. difficile 132 (RT027) [6]: 32 mg/L (≈ 38.1 µM)
appearance in the solubility assay [7]: homogenous suspension
SR = solubility ratio relative to that of compound 1 [7]: 3
MIC S. pneumoniae ATCC 49619 [8]: 4 mg/L (≈ 4.76 µM)
CC50 [9]: 27.4 mg/L (≈ 32.6 µM)
MIC against C. difficile [10]: 8 mg/L (≈ 9.52 µM)
% hemolysis at 50 µg/mL [11]: 94% ^i
MIC S. aureus ATCC 43300 [12]: 2 mg/L (≈ 2.38 µM)

Compound: CC(C)CCOC(=O)[C@H](CC(C)C)NC(=O)[C@@H](CCCNC(=N)N)NC(=O)[C@@H](CCCCN)NC(=O)COc1ccc2ccccc2c1-c1c(OCCC(C)C)ccc2ccccc12 [Compound 1]
MIC E. coli ATCC 25922 [1]: 16 mg/L (≈ 18.1 µM)
MIC S. aureus ATCC 29213 [2]: 2 mg/L (≈ 2.27 µM)
MIC E. faecalis ATCC 29212 [4]: 2 mg/L (≈ 2.27 µM)
appearance in the solubility assay [7]: homogenous suspension
SR = solubility ratio relative to that of compound 1 [7]: 1
MIC S. pneumoniae ATCC 49619 [8]: 2 mg/L (≈ 2.27 µM)
MIC C. difficile strain R20291 (RT207) [13]: 8 ^h μg/mL
MIC C. difficile strain M7404 (RT027) [14]: 8 ^g μg/mL
MIC against C. difficile [10]: 8 mg/L (≈ 9.07 µM)

Compound: CC(C)CCOc1ccccc1-c1ccccc1OCc1cn(C[C@@H](CCCCN)NC(=O)[C@@H](CCCNC(=N)N)n2cc(C3CCCCC3)nn2)nn1 [Compound 4]
MIC E. coli ATCC 25922 [1]: 8 mg/L (≈ 10.8 µM)
MIC S. aureus ATCC 29213 [2]: 8 mg/L (≈ 10.8 µM)
MIC S. aureus NCTC 104422 [3]: 4 mg/L (≈ 5.39 µM)
MIC E. faecalis ATCC 29212 [4]: 8 mg/L (≈ 10.8 µM)
survival rate at 24 h [5]: 60%
survival rate after 48 h [5]: 0%
MIC C. difficile 132 (RT027) [6]: 8 mg/L (≈ 10.8 µM)
appearance in the solubility assay [7]: homogenous suspension
SR = solubility ratio relative to that of compound 1 [7]: 4
MIC S. pneumoniae ATCC 49619 [8]: 4 mg/L (≈ 5.39 µM)
CC50 [9]: 14.2 mg/L (≈ 19.1 µM)
MIC against C. difficile [10]: 4 mg/L (≈ 5.39 µM)
% hemolysis at 50 µg/mL [11]: 23% ^i
in vitro hemolytic activity [11]: low
MIC S. aureus ATCC 43300 [12]: 4 mg/L (≈ 5.39 µM)

Compound: CC(C)CCOc1ccc2ccccc2c1-c1c(OCC(=O)N[C@H](CCCNC(=N)N)Cn2cc(-c3ccccc3)nn2)ccc2ccccc12 [Compound 3]
MIC E. coli ATCC 25922 [1]: >128 mg/L
MIC S. aureus ATCC 29213 [2]: 2 mg/L (≈ 2.92 µM)
MIC S. aureus NCTC 104422 [3]: 2 mg/L (≈ 2.92 µM)
MIC E. faecalis ATCC 29212 [4]: 4 mg/L (≈ 5.85 µM)
appearance in the solubility assay [7]: flocculation
SR = solubility ratio relative to that of compound 1 [7]: 1
solubility during preparation in a 10% DMSO solution ([7]; precipitation): poor solubility
MIC S. pneumoniae ATCC 49619 [8]: 8 mg/L (≈ 11.7 µM)
MIC C. difficile strain R20291 (RT207) [13]: 8 ^h μg/mL
MIC C. difficile strain M7404 (RT027) [14]: 8 ^g μg/mL
MIC against C. difficile [10]: 8 mg/L (≈ 11.7 µM)
Haemolysis ([11]; Figure 1): 86%
in vitro hemolytic activity [11]: high

MIC [17]: > 32 mg/L
MIC ([18]; Enterococcus faecalis, ATCC29212, read-out: MIC E. faecalis ATCC 29212): 16 mg/L (≈ 26 µM)
MIC E. faecalis ATCC 29212 [18]: 4 mg/L (≈ 6.51 µM)
MIC [19]: 8 mg/L (≈ 13 µM)
MIC [21]: 128 mg/L (≈ 208 µM)
MIC ([22]; Candida albicans, ATCC90028, Table S1): 32 mg/L (≈ 52 µM)
MIC C. albicans ATCC 90028 ([22]; Table S1): > 32 mg/L
MIC [23]: > 32 mg/L
MIC ([24]; Streptococcus pneumoniae, ATCC49619, read-out: MIC S. pneumoniae ATCC 49619): 16 mg/L (≈ 26 µM)
MIC S. pneumoniae ATCC 49619 [24]: 4 mg/L (≈ 6.51 µM)
MIC ([25]; Staphylococcus aureus, read-out: MIC S. aureus ATCC 43300): 16 mg/L (≈ 26 µM)
MIC S. aureus ATCC 43300 [25]: 8 mg/L (≈ 13 µM)
MIC [26]: 8 mg/L (≈ 13 µM)
MIC ([27]; Escherichia coli, ATCC25922, Table S1): 32 mg/L (≈ 52 µM)
MIC E. coli ATCC 25922 ([27]; Table S1): > 32 mg/L
MIC [28]: 128 mg/L (≈ 208 µM)
MIC [29]: > 32 mg/L
MIC [30]: > 128 mg/L
Compound: CC(C)CCc1cn(-c2c(OCC(=O)N[C@H](CCCNC(=N)N)Cn3cc(C4CCCCC4)nn3)ccc3ccccc23)nn1 [Compound 21]
CC50 [15]: > 32 mg/L
CC50 [16]: >32 mg/L
HC50 ([20]; Table 1, lysis of human erythrocytes): >32 µg/mL
HC50 ([20]; Table S1, footnote says lysis of sheep erythrocytes): > 32 µg/mL

Source: PMC8388771, “Cationic Peptidomimetic Amphiphiles Having a N-Aryl- or N-Naphthyl-1,2,3-Triazole Core Structure Targeting Clostridioides (Clostridium) difficile: Synthesis, Antibacterial Evaluation, and an In Vivo C. difficile Infection Model” (Antibiotics, 2021)
